Molecules are shown by their SMILES.

The record followed here is patent US12351570B2 (MERCK PATENT GMBH, priority 2018, dated 2025).

The test system of this experiment is MDA-MB-231 cells. In words: Extracellular lactate production inhibition after 4 h, MDA-MB-231. Conditions: Homo sapiens, MDA-MB-231.
For `COc1cc(C(=O)OCC(O)CO)ncc1C#Cc1ccccc1NS(=O)(=O)c1c(C)ccc2cccnc12` (centres unmarked) [Compound 408, 2,3-dihydroxypropyl 4-methoxy-5-{2-[2-(7-methylquinoline-8-sulfonamido)phenyl]ethynyl}pyridine-2-carboxylate], the IC50 lay in the range of 0.01 to 0.1 µM.
With `COc1cc(C(=O)O)ncc1C#Cc1ccccc1NS(=O)(=O)c1cccc2c(N(C)C)ccnc12` [Compound 418, 5-[2-(4-Dimethylamino-quinoline-8-sulfonylamino)-phenylethynyl]-4-methoxy-pyridine-2-carboxylic acid] the figure was 0.1 to 1 µM; with `COC(=O)c1cc(C)c(C#Cc2cc(F)ccc2NS(=O)(=O)c2ccc(-c3ccccc3)cc2)cn1` [Compound 139, methyl 5-[2-(2-{[1,1′-biphenyl]-4-sulfonamido}-5-fluorophenyl)ethynyl]-4-methylpyridine-2-carboxylate], 0.1 to 1 µM; with `NC(=O)N(Cc1ccc2ccccc2c1)c1ccccc1C#Cc1ccc(C(=O)O)nc1` [Compound 147, 5-[2-(2-{carbamoyl[(naphthalen-2-yl)methyl]amino}phenyl)ethynyl]pyridine-2-carboxylic acid], 0.1 to 1 µM.
With `Cc1c(S(=O)(=O)Nc2ccccc2C#Cc2ccc(C(=O)O)cc2)sc2ccc(Cl)cc12` [Compound 22, 4-{2-[2-(5-chloro-3-methyl-1-benzothiophene-2-sulfonamido)phenyl]ethynyl}benzoic acid] the figure was 0.1 to 1 µM.
With `CCc1cc(C#Cc2ccccc2NS(=O)(=O)c2cccc3cccnc23)cnc1C(=O)O` [Compound 345, 3-Ethyl-5-[2-(quinoline-8-sulfonylamino)-phenylethynyl]-pyridine-2-carboxylic acid] the figure was 0.01 to 0.1 µM.
The compound `O=C(O)c1ccc(C#Cc2ccccc2NS(=O)(=O)/C=C/c2ccccc2)cn1` [Compound 326, 5-(2-{2-[(E)-2-phenylethenesulfon-amido]phenyl}ethynyl)pyridine-2-carboxylic acid] yielded a half-inhibitory concentration (IC50) of 1 to 100 µM.
With `COc1ccc(S(=O)(=O)Nc2ccccc2C#Cc2ccc(C(=O)O)cc2)cc1C` [Compound 56, 4-{2-[2-(4-methoxy-3-methylbenzenesulfonamido)phenyl]-ethynyl}benzoic acid] the figure was 0.1 to 1 µM.
With `Cn1ccc2cccc(S(=O)(=O)Nc3ccccc3C#Cc3ccc(C(=O)O)nc3)c21` [Compound 296, 5-{2-[2-(1-methyl-1H-indole-7-sulfonamido)phenyl]ethynyl}pyridine-2-carboxylic acid] the figure was 1 to 100 µM; with `COc1ccc(S(=O)(=O)Nc2ccc(Br)cc2C#Cc2ccc(C(=O)N(C)C)nc2)c2ncccc12` [Compound 238, 5-{2-[5-bromo-2-(5-methoxyquinoline-8-sulfonamido)phenyl]ethynyl}-N,N-dimethylpyridine-2-carboxamide], 1 to 100 µM.
In the case of `CC(C)Nc1ccnc2c(S(=O)(=O)Nc3ccccc3C#Cc3ccc(C(=O)O)nc3)cccc12` [Compound 427, 5-[2-(4-Isopropylamino-quinoline-8-sulfonylamino)-phenylethynyl]-pyridine-2-carboxylic acid], the IC50 lay in the range of 1 to 100 µM.
With `COc1ccc(S(=O)(=O)Nc2cc(F)c(Br)cc2C#Cc2ccc(C(=O)O)nc2)c2ncccc12` [Compound 325, 5-{2-[5-bromo-4-fluoro-2-(5-methoxy-quinoline-8-sulfonamido)phenyl]-ethynyl}pyridine-2-carboxylic acid] the figure was 0.001 to 0.01 µM.
With `O=CN(Cc1ccc(-c2ccccc2)cc1)c1ccccc1C#Cc1ccc(C(=O)O)nc1` [Compound 183, 5-(2-{2-[N-({[1,1′-biphenyl]-4-yl}methyl)formamido]phenyl}-ethynyl)pyridine-2-carboxylic acid], the half-maximal inhibitory concentration (IC50) lay in the range of 0.01 to 0.1 µM.
In turn, `Cc1cc(C#Cc2ccccc2NS(=O)(=O)c2cccc3cccnc23)cnc1C(=O)O` [Compound 59, 3-methyl-5-{2-[2-(quinoline-8-sulfonamido)phenyl]ethynyl}pyridine-2-carboxylic acid] showed an IC50 of 0.1 to 1 µM.
With `C=C(C)c1cc(C(=O)O)ncc1C#Cc1ccccc1NS(=O)(=O)c1c(C)ccc2cccnc12` [Compound 158, 5-{2-[2-(7-methylquinoline-8-sulfonamido)phenyl]ethynyl}-4-(prop-1-en-2-yl)pyridine-2-carboxylic acid] the figure was 0.01 to 0.1 µM; with `O=C(O)c1ncc(C#Cc2ccccc2NS(=O)(=O)c2cccc3c(Cl)ccnc23)c2ccccc12` [Compound 441, 4-{2-[2-(4-chloroquinoline-8-sulfonamido)phenyl]ethynyl}iso-quinoline-1-carboxylic acid], 0.1 to 1 µM.
`O=C(O)c1ccc(C#Cc2ccccc2NS(=O)(=O)c2cccc3ccccc23)cc1F` [Compound 69, 2-fluoro-4-{2-[2-(naphthalene-1-sulfonamido)phenyl]ethynyl}benzoic acid] gave a half-maximal inhibitory concentration (IC50) of 0.1 to 1 µM.
With `COC(=O)c1ncc(C#Cc2cc(F)ccc2NS(=O)(=O)c2c(C)ccc3cccnc23)cc1C` [Compound 312, methyl 5-{2-[5-fluoro-2-(7-methylquinoline-8-sulfonamido)phenyl]ethynyl}-3-methylpyridine-2-carboxylate] the figure was 1 to 100 µM; with `O=C(O)c1ccc(C#Cc2ccccc2NS(=O)(=O)c2cccc3c2oc2ccccc23)cn1` [Compound 108, 5-[2-(Dibenzofuran-4-sulfonylamino)-phenylethynyl]-pyridine-2-carboxylic acid (5-[2-(2-{8-oxatricyclo[7.4.0.0^2,7]trideca-1(9),2,4,6,10,12-hexaene-6-sulfonamido}phenyl)ethynyl]pyridine-2-carboxylic acid)], 0.01 to 0.1 µM.
With `O=C(O)c1ccc(C#Cc2ccccc2NS(=O)(=O)c2csc3ccccc23)cn1` [Compound 104, 5-{2-[2-(1-benzothiophene-3-sulfonamido)phenyl]ethynyl}pyridine-2-carboxylic acid] the figure was 0.1 to 1 µM.
With `COC(=O)c1ccc(C#Cc2ccccc2NS(=O)(=O)c2ccc(-n3cccn3)cc2)cn1` [Compound 133, methyl 5-(2-{2-[4-(1H-pyrazol-1-yl)benzenesulfonamido]phenyl}-ethynyl)pyridine-2-carboxylate] the figure was 0.1 to 1 µM.
Consider `O=C(O)c1ncc(C#Cc2ccccc2NS(=O)(=O)c2ccc3ccccc3c2)cc1F` [Compound 65, 3-fluoro-5-{2-[2-(naphthalene-2-sulfonamido)phenyl]ethynyl}pyridine-2-carboxylic acid], for which the IC50 was in the range of 1 to 100 µM.
Take `CCOC(=O)c1ccc(C#Cc2ccccc2NS(=O)(=O)c2ccc(OC)c3cccnc23)cn1` [Compound 165, ethyl 5-{2-[2-(5-methoxyquinoline-8-sulfonamido)phenyl]ethynyl}pyridine-2-carboxylate]: the IC50 lay within 0.01 to 0.1 µM.
In turn, `COC(=O)c1ccc(C#Cc2ccccc2NS(=O)(=O)c2ccc(OC)c3cccnc23)cn1` [Compound 129, methyl 5-{2-[2-(5-methoxyquinoline-8-sulfonamido)phenyl]ethynyl}pyridine-2-carboxylate] had an IC50 of 0.01 to 0.1 µM.
With `COc1ccc(S(=O)(=O)Nc2ccc(Cl)cc2C#Cc2ccc(C(=O)O)nc2)c2ncccc12` [Compound 359, 5-{2-[5-chloro-2-(5-methoxyquinoline-8-sulfonamido)phenyl]ethynyl}pyridine-2-carboxylic acid] the figure was 0.001 to 0.01 µM; with `COc1ccc(C#Cc2ccc(C(=O)O)nc2)c(NS(=O)(=O)c2c(C)ccc3cccnc23)c1` [Compound 218, 5-{2-[4-methoxy-2-(7-methylquinoline-8-sulfonamido)phenyl]ethynyl}pyridine-2-carboxylic acid], 0.1 to 1 µM.
With `COc1cc(C(=O)N(C)C)ncc1C#Cc1cc(Cl)ccc1NS(=O)(=O)c1ccc(OC)c2cccnc12` [Compound 373, 5-{2-[5-chloro-2-(5-methoxyquinoline-8-sulfonamido)phenyl]ethynyl}-4-methoxy-N,N-dimethylpyridine-2-carboxamide] the figure was 1 to 100 µM; with `CC(C)(C)OC(=O)NCCOCCOCCOc1ccc(NS(=O)(=O)c2cccc3cccnc23)c(C#Cc2ccc(C(=O)O)nc2)c1` [Compound 331, 5-[5-{2-[2-(2-tert-Butoxycarbonylamino-ethoxy)-ethoxy]-ethoxy}-2-(quinoline-8-sulfonylamino)-phenylethynyl]-pyridine-2-carboxylic acid], 1 to 100 µM; with `COc1ccc(S(=O)(=O)Nc2ccccc2C#Cc2ccc(C(=O)NC#N)cc2)c2ccccc12` [Compound 253, N-cyano-4-{2-[2-(4-methoxy-naphthalene-1-sulfonamido)phenyl]-ethynyl}benzamide], 1 to 100 µM.
With `O=CN(Cc1ccccc1C#Cc1ccc(C(=O)O)nc1)c1ccc2ccccc2c1` [Compound 202, 5-[2-(2-{[N-(naphthalen-2-yl)formamido]methyl}phenyl)-ethynyl]pyridine-2-carboxylic acid] the figure was 0.01 to 0.1 µM.
In the case of `COc1ccc(S(=O)(=O)Nc2ccccc2C#Cc2ccc(C(=O)NS(C)(=O)=O)cc2)c2ccccc12` [Compound 252, 4-Methoxy-naphthalene-1-sulfonic acid [2-(4-methanesulfonylaminocarbonyl-phenylethynyl)-phenyl]-amide], the IC50 was 1 to 100 µM.
On to `COc1ccccc1S(C)(=O)=Nc1ccccc1C#Cc1ccc(C(=O)O)nc1` (centres unmarked) [Compound 433, 5-[2-(2-{[(2-methoxyphenyl)(methyl)oxo-λ6-sulfanylidene]amino}phenyl)ethynyl] pyridine-2-carboxylic acid], for which the half-maximal inhibitory concentration (IC50) fell in the range of 1 to 100 µM.
With `COc1ccc(S(=O)(=O)Nc2ccc(F)cc2C#Cc2cnc(C(=O)O)c(C)c2)c2ncccc12` [Compound 311, 5-{2-[5-fluoro-2-(5-methoxyquinoline-8-sulfonamido)phenyl]ethynyl}-3-methylpyridine-2-carboxylic acid] the figure was 0.1 to 1 µM; with `CCOc1ccc(S(=O)(=O)Nc2ccccc2C#Cc2ccc(C(=O)O)nc2)cc1NC(C)=O` [Compound 300, 5-{2-[2-(3-acetamido-4-ethoxy-benzenesulfonamido)phenyl]ethynyl}-pyridine-2-carboxylic acid], 0.1 to 1 µM; with `CC1CCN(S(=O)(=O)Nc2ccccc2C#Cc2ccc(C(=O)O)nc2)C2CCCCC12` (centres unmarked) [Compound 228, 5-[2-(2-{[(4-methyl-decahydroquinolin-1-yl)sulfonyl]amino}phenyl)ethynyl]pyridine-2-carboxylic acid], 0.01 to 0.1 µM.
